What is called IC50 is the midpoint of a concentration-inhibition curve. A low value points to inhibition by little substance. As usually defined, the CC50 is the concentration giving 50% cytotoxicity.

20 compounds from ChEMBL document CHEMBL4699490, “Production of Highly Active Antiparasitic Compounds from the Controlled Halogenation of the Arrabidaea brachypoda Crude Plant Extract” (J Nat Prod, 2020) can be followed below.

In one series the test system is Leishmania amazonensis. The series can be described thus: Antiparasitic activity against intracellular Leishmania amazonensis amastigotes infected in mouse peritoneal macrophage measured after 72 hrs. The class given is functional, organism-based.
A short description of series [1]: Cytotoxicity against Balb/c mouse peritoneal macrophage assessed as cell viability measured after 72 hrs by alamar blue assay. The class given is tissue-based. To be noted: peritoneal macrophages.
Series [2] is described as follows: Selectivity index, ratio of CC50 for mouse peritoneal macrophages to IC50 for Leishmania amazonensis amastigotes infected in BALB/c mouse peritoneal macrophages. The class given is toxicity. The note with it: read-out: Ratio CC50/IC50.
The next series deals with Trypanosoma cruzi. Briefly: Antiparasitic activity against intracellular Trypanosoma cruzi amastigotes infected in mouse peritoneal macrophage measured after 72 hrs. Type of series: functional, organism-based.
Series [3] in a line: Selectivity index, ratio of CC50 for mouse peritoneal macrophages to IC50 for Trypanosoma cruzi amastigotes infected in BALB/c mouse peritoneal macrophages. The class given is toxicity. The note with it: read-out: Ratio CC50/IC50.

In turn, `COc1cc(O)cc2c1[C@@H](/C=C/c1ccc(O)cc1)[C@@H]1[C@@H](c3ccccc3)Oc3cc(O)cc(OC)c3[C@@H]1O2` returned an IC50 with Leishmania amazonensis of over 20 µM. For the same compound, the CC50 at 72 h in series [1] is over 20 µM.
In the series with Leishmania amazonensis, `COc1ccc(/C=C/[C@@H]2c3c(OC)cc(O)cc3O[C@H]3c4c(OC)cc(O)cc4O[C@H](c4ccccc4)[C@@H]23)cc1` gave a concentration for half-maximal inhibition (IC50) of 2.2 µM. Besides, the CC50 at 72 h in series [1] was over 20 µM. Moreover, in series [2], the selectivity ratio was found to be 9.1.
The like results for `COc1cc(O)cc2c1[C@@H](/C=C/c1ccccc1)[C@@H]1[C@@H](c3ccccc3)Oc3cc(O)cc(OC)c3[C@@H]1O2` were, in that order, 6.3 µM, over 20 µM and 3.2.
Regarding `COc1ccc(/C=C/[C@@H]2c3c(OC)cc(O)c(Br)c3O[C@H]3c4c(OC)cc(O)c(Br)c4O[C@H](c4ccccc4)[C@@H]23)cc1`, the IC50 in the series with Leishmania amazonensis is 3.6 µM; in the series on Trypanosoma cruzi, 4.7 µM. The CC50 at 72 h in series [1] was over 100 µM. In addition, the selectivity ratio in series [2] was over 28; in series [3], over 21.
For `COc1ccc(/C=C/[C@@H]2c3c(OC)cc(O)c(Cl)c3O[C@H]3c4c(OC)cc(O)c(Cl)c4O[C@H](c4ccccc4)[C@@H]23)cc1` the same measures were 3.4 µM, 2.2 µM, over 100 µM, over 29 and over 45.
As to `COc1cc(O)c(I)c2c1[C@@H](/C=C/c1ccccc1)[C@@H]1[C@@H](c3ccccc3)Oc3cc(O)cc(OC)c3[C@@H]1O2`, the IC50 with Leishmania amazonensis was over 10 µM; with Trypanosoma cruzi, 1.9 µM. Moreover, in series [1], the CC50 at 72 h was over 100 µM. The selectivity ratio in series [3] is over 53.
As to `COc1cc(O)c(Br)c2c1[C@@H](/C=C/c1ccccc1)[C@@H]1[C@@H](c3ccccc3)Oc3c(Br)c(O)cc(OC)c3[C@@H]1O2`, the IC50 in the series with Leishmania amazonensis was 1.7 µM; in the series on Trypanosoma cruzi, 1.6 µM. Moreover, the CC50 at 72 h in series [1] was over 100 µM. The selectivity ratio in series [2] was over 59; in series [3], over 63.
Consider `COc1ccc(/C=C/[C@@H]2c3c(OC)cc(O)cc3O[C@H]3c4c(OC)cc(O)c(I)c4O[C@H](c4ccccc4)[C@@H]23)cc1`, for which the IC50 was 5.4 µM in the series on Leishmania amazonensis and 1.6 µM with Trypanosoma cruzi. In series [1], the CC50 at 72 h is over 100 µM. For the same compound, the selectivity ratio was over 19 in series [2] and over 63 in series [3].
On to `COc1ccc(/C=C/[C@@H]2c3c(OC)cc(O)c(Cl)c3O[C@H]3c4c(OC)cc(O)cc4O[C@H](c4ccccc4)[C@@H]23)cc1`, for which the IC50 with Leishmania amazonensis is over 10 µM; in the series with Trypanosoma cruzi, 1.4 µM. Also, in series [1], the CC50 at 72 h was over 100 µM. In addition, the selectivity ratio in series [3] is over 71.
In the case of `COc1cc(O)c(Br)c2c1[C@@H]1Oc3c(Br)c(O)c(Br)c(OC)c3[C@@H](/C=C/c3ccc(O)cc3)[C@@H]1[C@@H](c1ccccc1)O2`, the IC50 with Leishmania amazonensis is 6.5 µM; in the series on Trypanosoma cruzi, over 10 µM. The CC50 at 72 h in series [1] was over 100 µM. Moreover, in series [2], the selectivity ratio was over 15.
With `COc1cc(O)c(I)c2c1[C@@H](/C=C/c1ccc(O)cc1)[C@@H]1[C@@H](c3ccccc3)Oc3c(I)c(O)cc(OC)c3[C@@H]1O2`, the IC50 with Leishmania amazonensis is 7.8 µM; in the series on Trypanosoma cruzi it was 1.8 µM. In addition, the CC50 at 72 h in series [1] was over 100 µM. Also, the values for the selectivity ratio in series [2] and in series [3] were over 13 and over 56, respectively.
The like results for `COc1cc(O)c(I)c2c1[C@@H](/C=C/c1ccccc1)[C@@H]1[C@@H](c3ccccc3)Oc3c(I)c(O)cc(OC)c3[C@@H]1O2` were, in that order, 3.9 µM, 6.5 µM, over 100 µM, over 26 and over 15.
As to `COc1cc(O)c(Br)c2c1[C@@H](/C=C/c1ccc(O)cc1)[C@@H]1[C@@H](c3ccccc3)Oc3c(Br)c(O)cc(OC)c3[C@@H]1O2`, the results for the IC50 in the series with Leishmania amazonensis and in the series with Trypanosoma cruzi were 2.5 µM and 8.3 µM, respectively. The CC50 at 72 h in series [1] was over 100 µM. Moreover, the selectivity ratio was over 40 in series [2] and over 12 in series [3].
The like results for `COc1ccc(/C=C/[C@@H]2c3c(OC)c(Br)c(O)c(Br)c3O[C@H]3c4c(OC)cc(O)c(Br)c4O[C@H](c4ccccc4)[C@@H]23)cc1` were, in that order, 4.5 µM, 3.8 µM, over 100 µM, over 22 and over 26.
For `COc1ccc(/C=C/[C@@H]2c3c(OC)cc(O)c(I)c3O[C@H]3c4c(OC)cc(O)c(I)c4O[C@H](c4ccccc4)[C@@H]23)cc1` the same measures were 4.7 µM, 2.5 µM, over 100 µM, over 21 and over 40.
For `COc1cc(O)c(Br)c2c1[C@@H]1Oc3c(Br)c(O)c(Br)c(OC)c3[C@@H](/C=C/c3ccccc3)[C@@H]1[C@@H](c1ccccc1)O2` the same measures were 1 µM, 2.9 µM, over 100 µM, over 100 and over 34.
Consider `COc1ccc(/C=C/[C@@H]2c3c(OC)cc(O)c(Br)c3O[C@H]3c4c(OC)cc(O)cc4O[C@H](c4ccccc4)[C@@H]23)cc1`, for which the IC50 in the series on Leishmania amazonensis stood at 3.3 µM; with Trypanosoma cruzi it was 3.6 µM. Also, the CC50 at 72 h in series [1] is over 100 µM. Moreover, the selectivity ratio in series [2] was over 30; in series [3] it was over 28.
The like results for `COc1cc(O)c(Cl)c2c1[C@@H](/C=C/c1ccccc1)[C@@H]1[C@@H](c3ccccc3)Oc3cc(O)cc(OC)c3[C@@H]1O2` were, in that order, 1.2 µM, 1.4 µM, over 100 µM, over 83 and over 71.
The compound `C[C@@H]1[C@H](O)[C@@H](C)/C=C/C=C/C=C/C=C/C=C/C=C/C=C/[C@H](O[C@@H]2O[C@H](C)[C@@H](O)[C@H](N)[C@@H]2O)C[C@@H]2O[C@](O)(C[C@@H](O)C[C@@H](O)[C@H](O)CC[C@@H](O)C[C@@H](O)CC(=O)O[C@H]1C)C[C@H](O)[C@H]2C(=O)O` [AMPHOTERICIN B] came in with an IC50 in the series on Leishmania amazonensis of 0.2 µM. Further, in series [1], the CC50 at 72 h is over 50 µM. Moreover, the selectivity ratio in series [2] was over 217.
As for `O=C(Cn1ccnc1[N+](=O)[O-])NCc1ccccc1` [BENZNIDAZOLE], in series [1], the CC50 at 72 h is over 100 µM. The IC50 in the series with Trypanosoma cruzi amounted to 1.4 µM. Besides, in series [3], the selectivity ratio is over 35.
